# Experimental data as given in US12528790B2, “Amide derivative having antiviral activity” (Shionogi & Co., Ltd., priority 2020, dated 2026).
# Like-named read-outs stand apart in the source and are kept apart here.
# What was measured:
# [1] = test system: RSV B (Wash/18537 strain); experiment: In vitro CPE (CytoPathic Effect) inhibition effect evaluation test, RSV type B; type: cell-based
# Method in brief: (§1)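 EC50 is the concentration giving 50% inhibition of virus-induced cytopathic effect, fitted by nonlinear regression from CellTiter-Glo 2.0 viability. Compounds in 3-fold series were co-incubated at 37 °C with HEp-2 cells and RSV: A2 strain for 4 days, B (Wash/18537) for 5 days; uninfected wells served as control.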
# [2] = test system: RSV A2 strain; experiment: In vitro CPE (CytoPathic Effect) inhibition effect evaluation test, RSV type A; type: cell-based
# Method in brief: as §1
# [3] = human respiratory syncytial virus, inhibitory effect against RSV type B, CPE inhibition, read-out: EC50
# [4] = human respiratory syncytial virus, inhibitory effect against RSV type A (RSV A2 strain), HEp-2 cells, CPE inhibition, read-out: EC50
# [5] = inhibitory effect against RSV type B, CPE inhibition, read-out: EC50
# [6] = inhibitory effect against RSV type A (RSV A2 strain), HEp-2 cells, CPE inhibition, read-out: EC50
smiles,measurement,setting,value
COCC(C)n1cc(-c2ncc(C(=O)NC3(C(=O)O)C4CC5CC(C4)CC3C5)c(C(C)(F)F)n2)c2ccc(OC3CCN(CC(C)(F)F)CC3)cc21 (stereo not shown) [Compound I-615],EC50,[1]; [3],< 10 nM
same,EC50,[2]; [4],< 10 nM
N#Cc1cnc(N2CCC(Oc3ccc4c(c3)C3(CCCCC3)CN4c3ncc(C(=O)NC4(C(=O)O)C5CC6CC(C5)CC4C6)c(C(F)(F)F)n3)CC2)nc1 (stereo not shown) [Compound I-520],EC50,[1]; [3],< 10 nM
same,EC50,[2]; [4],< 10 nM
O=C(NC1(C(=O)O)C2CC3CC(C2)CC1C3)c1cnc(N2CC3(CCOCC3)c3cc(C(=O)N4CC(C(F)(F)F)C4)ccc32)nc1C(F)(F)F (stereo not shown) [Compound I-490],EC50,[1]; [3],< 10 nM
same,EC50,[2]; [4],< 10 nM
CC(F)(F)c1nc(N2CC3(CCCCC3)c3cc(OC4CCN(c5ncc(F)cn5)CC4)ncc32)ncc1C(=O)NC1(C(=O)O)C2CC3CC(C2)CC1C3 (stereo not shown) [Compound I-557],EC50,[1]; [3],< 10 nM
same,EC50,[2]; [4],< 10 nM
O=C(NC1(C(=O)O)C2CC3CC(C2)CC1C3)c1cnc(-c2cn(C3CCC(F)(F)CC3)c3cc(OC4CCC5(CC4)COC5)ccc23)nc1C(F)(F)F (stereo not shown) [Compound I-256],EC50,[1]; [3],< 10 nM
same,EC50,[2]; [4],< 10 nM
"O=C(NC1(C(=O)O)C2CC3CC(C2)CC1C3)c1cnc(-c2cn(C3CCC(F)CC3)c3cc(O[C@H]4CC[C@H](N5CC(F)(F)C5)CC4)ccc23)nc1C(F)(F)F (single isomer, unassigned) [Compound I-509]",EC50,[1]; [3],< 10 nM
same,EC50,[2]; [4],< 10 nM
O=C(NC1(C(=O)O)C2CC3CC(C2)CC1C3)c1cnc(N2CC3(CCCC3)c3cc(OC4CCC5(CC4)COC5)ccc32)nc1C(F)(F)F (stereo not shown) [Compound I-488],EC50,[1]; [3],< 10 nM
same,EC50,[2]; [4],< 10 nM
O=C(NC1(C(=O)O)C2CC3CC(C2)CC1C3)c1cnc(N2CC3(CCCCC3)c3cc(-n4ncc5c4CCN(CC(F)(F)F)C5)ccc32)nc1C(F)(F)F (stereo not shown) [Compound I-606],EC50,[1]; [3],< 10 nM
same,EC50,[2]; [4],< 10 nM
CC(F)(F)c1nc(N2CC3(CCOCC3)c3cc(OC4CCN(CC5CC(F)(F)C5)CC4)ccc32)ncc1C(=O)NC1(C(=O)O)C2CC3CC(C2)CC1C3 (stereo not shown) [Compound I-533],EC50,[1]; [3],< 10 nM
same,EC50,[2]; [4],< 10 nM
O=C(NC1(C(=O)O)C2CC3CC(C2)CC1C3)c1cnc(N2CC3(CCCCC3)c3cc(C(=O)N4CCN(c5ncc(F)cn5)CC4)ccc32)nc1C(F)(F)F (stereo not shown) [Compound I-504],EC50,[1]; [3],< 10 nM
same,EC50,[2]; [4],< 10 nM
COc1ccc2c(c1)C1(CCOCC1)CN2c1ncc(C(=O)NC2(C(=O)O)C3CC4CC(C3)CC2C4)c(C(F)(F)F)n1 (stereo not shown) [Compound I-80],EC50,[1]; [5],< 10 nM
same,EC50,[2]; [6],< 10 nM
CC(F)(F)c1nc(N2CC3(CCCCC3)c3cc(OC4CCC5(CC4)COC5)ccc32)ncc1C(=O)NC1(C(=O)O)C2CC3CC(C2)CC1C3 (stereo not shown) [Compound I-401],EC50,[1]; [3],10 to 100 nM
same,EC50,[2]; [4],< 10 nM
O=C(NC1(C(=O)O)C2CC3CC(C2)CC1C3)c1cnc(N2CC3(CCOCC3)c3cc(OC4CCN(c5ncc(F)cn5)CC4)ncc32)nc1C(F)(F)F (stereo not shown) [Compound I-402],EC50,[1]; [3],< 10 nM
same,EC50,[2]; [4],< 10 nM
CC(F)(F)c1nc(N2CC3(CCOCC3)c3cc(OC4CCN(CC#N)CC4)ccc32)ncc1C(=O)NC1(C(=O)O)C2CC3CC(C2)CC1C3 (stereo not shown) [Compound I-528],EC50,[1]; [3],100 to 5000 nM
same,EC50,[2]; [4],< 10 nM
COC[C@H](C)n1cc(-c2ncc(C(=O)NC3(C(=O)O)C4CC5CC(C4)CC3C5)c(C(C)(F)F)n2)c2ccc(O[C@H]3CC[C@H](N4CC(F)(F)C4)CC3)cc21 (stereo partly shown) [Compound I-567],EC50,[1]; [3],< 10 nM
same,EC50,[2]; [4],< 10 nM
O=C(NC1(C(=O)O)C2CC3CC(C2)CC1C3)c1cnc(-c2cn(C3CC4(CC4)C3)c3cc(O[C@H]4CC[C@H](N5CC(F)(F)C5)CC4)ccc23)nc1C(F)(F)F (stereo partly shown) [Compound I-531],EC50,[1]; [3],< 10 nM
same,EC50,[2]; [4],< 10 nM
COC[C@@H](C)n1cc(-c2ncc(C(=O)NC3(C(=O)O)C4CC5CC(C4)CC3C5)c(C(C)(F)F)n2)c2ccc(OC3CC(N4CC(F)(F)C4)C3)cc21 (stereo partly shown) [Compound I-620],EC50,[1]; [3],< 10 nM
same,EC50,[2]; [4],< 10 nM
O=C(NC1(C(=O)O)C2CC3CC(C2)CC1C3)c1cnc(N2CC3(CCOCC3)c3cc(OC4CCN(C5CC5)CC4)ccc32)nc1C(F)(F)F (stereo not shown) [Compound I-92],EC50,[1]; [5],< 10 nM
same,EC50,[2]; [6],< 10 nM
COCCCCOc1ccc2c(c1)CCN2c1ncc(C(=O)NC2(C(=O)O)CCCCC2)c(C(F)(F)F)n1 [Compound I-2],EC50,[1]; [3],100 to 5000 nM
same,EC50,[2]; [4],10 to 100 nM
O=C(N[C@@]1(C(=O)O)C2CC3C[C@@H]1C[C@](F)(C3)C2)c1cnc(N2CCc3cc(OCCC4CCOCC4)ccc32)nc1C(F)(F)F [Compound I-155],EC50,[1]; [3],10 to 100 nM
same,EC50,[2]; [4],< 10 nM
N#C[C@]12CC3C[C@H](C1)[C@](NC(=O)c1cnc(N4CC5(CCOCC5)c5cc(OC6CCN(c7ncccn7)CC6)ccc54)nc1C(F)(F)F)(C(=O)O)[C@@H](C3)C2 [Compound I-218],EC50,[1]; [3],< 10 nM
same,EC50,[2]; [4],< 10 nM
O=C(NC1(C(=O)O)C2CC3CC(C2)CC1C3)c1cnc(N2CC3(CCCCC3)c3cc(OC4CCN(c5ncccn5)CC4)ccc32)nc1C(F)(F)F (stereo not shown) [Compound I-214],EC50,[1]; [3],< 10 nM
same,EC50,[2]; [4],< 10 nM
COC[C@@H](C)n1cc(-c2ncc(C(=O)NC3(C(=O)O)C4CC5CC(C4)CC3C5)c(C(F)(F)F)n2)c2ccc(OC3CCN(CC(C)(F)F)CC3)cc21 (stereo partly shown) [Compound I-576],EC50,[1]; [3],< 10 nM
same,EC50,[2]; [4],< 10 nM
O=C(NC1(C(=O)O)C2CC3CC(C2)CC1C3)c1cnc(N2CC3(CCCCC3)c3cc(O[C@H]4CCN(c5ncc(F)cn5)C4)ccc32)nc1C(F)(F)F (stereo partly shown) [Compound I-524],EC50,[1]; [3],100 to 5000 nM
same,EC50,[2]; [4],< 10 nM
"O=C(NC1(C(=O)O)C2CC3CC(C2)CC1C3)c1ccc(-c2cn(C3CCC(F)CC3)c3cc(OC4CCN(c5ncc(F)cn5)CC4)ccc23)nc1C(F)(F)F (single isomer, unassigned) [Compound I-397]",EC50,[1]; [3],< 10 nM
same,EC50,[2]; [4],< 10 nM
CC(F)(F)CN1CCC(Oc2ccc3c(-c4ccc(C(=O)NC5(C(=O)O)C6CC7CC(C6)CC5C7)c(C(F)(F)F)n4)cn(C4CCC(F)(F)CC4)c3c2)CC1 (stereo not shown) [Compound I-512],EC50,[1]; [3],10 to 100 nM
same,EC50,[2]; [4],< 10 nM
CC(F)(F)c1nc(-c2cn(C3CCC(F)(F)CC3)c3cc(O[C@H]4CC[C@H](N5CC(F)(F)C5)CC4)ccc23)ncc1C(=O)N[C@]1(C(=O)O)[C@@H]2CC3C[C@H]1C[C@@](F)(C3)C2 [Compound I-611],EC50,[1]; [3],< 10 nM
same,EC50,[2]; [4],< 10 nM
O=C(NC1(C(=O)O)C2CC3CC(C2)CC1C3)c1cnc(-c2cn(C3CCC(F)(F)CC3)c3cc(O[C@H]4CC[C@H](N5CC(F)(F)C5)CC4)ccc23)nc1C(F)(F)F (stereo partly shown) [Compound I-545],EC50,[1]; [3],< 10 nM
same,EC50,[2]; [4],< 10 nM
O=C(NC1(C(=O)O)C2CC3CC(C2)CC1C3)c1cnc(N2CC3(CCOCC3)c3cc(OC4CCN(c5ncccn5)CC4)ccc32)nc1C(F)(F)F (stereo not shown) [Compound I-82],EC50,"[1]; human respiratory syncytial virus, HEp-2, 120 h, HEp-2 cells, RSV B (Wash/18537 strain), 5 days, CellTiter-Glo, read-out: EC50, inhibitory effect against RSV type B (CPE inhibition)",0.34 nM
same,EC50,"[2]; human respiratory syncytial virus, HEp-2, 96 h, read-out: EC50, inhibitory effect against RSV type A (CPE inhibition)",0.27 nM
O=C(NC1(C(=O)O)C2CC3CC(C2)CC1C3)c1cnc(N2CC(C3CCCC3)c3cc(OC4CCN(CC(F)(F)F)CC4)ccc32)nc1C(F)(F)F (racemic) [Compound I-487],EC50,[1]; [3],10 to 100 nM
same,EC50,[2]; [4],< 10 nM
CC(F)(F)c1nc(N2CC3(CCCC3)c3cc(O[C@@H]4CCN(CC(F)(F)F)C4)ccc32)ncc1C(=O)NC1(C(=O)O)C2CC3CC(C2)CC1C3 (stereo partly shown) [Compound I-598],EC50,[1]; [3],< 10 nM
same,EC50,[2]; [4],< 10 nM
CC(F)(F)c1nc(N2CC3(CCOCC3)c3cc(OC4CCN(CC(F)(F)F)CC4)ncc32)ncc1C(=O)N[C@]1(C(=O)O)[C@@H]2CC3C[C@H]1C[C@@](F)(C3)C2 [Compound I-605],EC50,[1]; [3],< 10 nM
same,EC50,[2]; [4],< 10 nM
COCCCCOc1ccc2c(c1C)CCN2c1ncc(C(=O)NC2(C(=O)O)CCCCC2)c(C(F)(F)F)n1 [Compound I-1],EC50,[1]; [3],100 to 5000 nM
same,EC50,[2]; [4],10 to 100 nM
CC(F)(F)c1nc(N2CC3(CCCCC3)c3cc(C(=O)N4CCC(C(F)F)CC4)ccc32)ncc1C(=O)NC1(C(=O)O)C2CC3CC(C2)CC1C3 (stereo not shown) [Compound I-610],EC50,[1]; [3],< 10 nM
same,EC50,[2]; [4],< 10 nM
COC[C@@H](C)n1cc(-c2ncc(C(=O)NC3(C(=O)O)C4CC5CC(C4)CC3C5)c(C(F)(F)F)n2)c2ccc(O[C@H]3CC[C@H](N4CC(F)(F)C4)CC3)cc21 (stereo partly shown) [Compound I-507],EC50,[1]; [3],< 10 nM
same,EC50,[2]; [4],< 10 nM
O=C(NCC(F)(F)F)c1ccc2c(c1)C1(CCOCC1)CN2c1ncc(C(=O)NC2(C(=O)O)C3CC4CC(C3)CC2C4)c(C(F)(F)F)n1 (stereo not shown) [Compound I-483],EC50,[1]; [3],100 to 5000 nM
same,EC50,[2]; [4],< 10 nM
CN1CCN(CCOc2ccc3c(c2)C2(CCOCC2)CN3c2ncc(C(=O)NC3(C(=O)O)C4CC5CC(C4)CC3C5)c(C(F)(F)F)n2)CC1 (stereo not shown) [Compound I-204],EC50,[1]; [3],10 to 100 nM
same,EC50,[2]; [4],< 10 nM
CC(F)(F)c1nc(N2CC3(CCCCC3)c3cc(OC4CCC(N5CCC(F)(F)C5)CC4)ccc32)ncc1C(=O)NC1(C(=O)O)C2CC3CC(C2)CC1C3 (stereo not shown) [Compound I-539],EC50,[1]; [5],10 to 100 nM
same,EC50,[2]; [6],< 10 nM
